Measured values taken from US10568819B2, “Skin enhancing compositions and methods” (Sytheon Limited, priority 2016, dated 2020).
Read-outs that look alike come from different tables or passages of the source.

Columns and labels:
[1] = test system: Collagen type 3; experiment: Collagen 3 boosting in human dermal fibroblasts; format: cell-based; settings: HDF, incubation time of 6 days
Description: In this study, an investigation was performed in relation to the ability, if any, of the aryl alkanones to boost the production of Collagens 1, 3 and 4 proteins. The study was conducted using human fibroblasts in accordance with the method of J Dobak et at (J Dobak, J Grzybowski, F T Liu, B Landon, M Dobke, 1, 25-Dihydroxyvitamin D3 increases collagen production in dermal fibroblasts, J Dermatol Sci 1994; 8:18-24, 1994). In this study, the cells used were human dermal fibroblasts (HDF), passage 12 (Cell Applications, San Diego, Calif.) which underwent an incubation time of 6 days.

[2] = test system: LAMA4; experiment: DNA microarray gene expression, LAMA4; format: cell-based
Source text: (§1) In light of the efficacy of the aryl alkanones ire addressing many of the molecular/biomolecular processes damaged by UV exposure, a study was undertaken to assess whether these compounds would also be effective in addressing symptoms associated with non-UV induced skin aging including chronological aging as well as disease conditions that likewise adversely affect skin processes. The studies conducted involves DNA microarray, PCR array, cell culture, enzyme inhibitory activity.

[3] = test system: MMP3; experiment: DNA microarray gene expression, MMP3; format: cell-based
Source text: as §1

[4] = test system: human dermal fibroblasts; experiment: UVA-induced mitochondrial damage measured by ATP production (Mitochondrial ToxGlo Assay); format: cell-based; settings: 24 h pre-incubation
Description: (§2) The study was conducted in accordance with the protocols of Berridge et al, (M V Berridge & A S Tan, Characterization of the cellular reduction of 3-(4,5-dimethylthiazol-2-yl)-2,5-diphenyltetrazolium bromide (MTT): subcellular localization, substrate dependence, and involvement of mitochondrial electron transport in MTT reduction, Arch. Biochem. Biophys. 303:474-482, 1993) and Voigt (W Voigt, Sulforhodamine B assay and chemosensitivity, Methods Mol Med, 110:39-48, 2005). Cellular metabolism is determined using the MTT assay to measure the activity of mitochondrial dehydrogenases, such as succinate dehydrogenase, which are implicated in the respiratory electron transport chain in mitochondria [M V Berridge & Tan Biochem Biophys, 303:474-482, 1993]. Additionally, the samples were subject to the Mitochondrial ToxGlo Assay (Promega Technical Manual, G8000 and G8001), which is a cell-based assay method that has been developed to quantify potential mitochondrial dysfunction as a result of xenobiotic exposure, using a sequential-addition, multiplexed chemistry.
(§3) Table 8 presents the result on the effect of UVA radiation on cell metabolism 3 hours after irradiation. As indicated, Compound 1 improves cell metabolism, even at a very low use concentration. Table 9 presents the effect of 24 hour pre-incubation on UVA-induced mitochondrial damage measured by ATP production in human dermal fibroblasts. […] Finally. Table 10 presents the effect of 24 hour pre-incubation on UVA-induced plasma membrane disruption in human dermal fibroblasts. As indicated, Compound 1 almost completely reversed plasma membrane disruption, again at a very low use concentration.

[5] = test system: ITGB5; experiment: PCR array gene expression, ITGB5; format: cell-based
Source text: as §1

[6] = test system: COL11A2; experiment: DNA microarray gene expression, COL11A2; format: cell-based
Source text: as §1

[7] = test system: ELN; experiment: DNA microarray gene expression, ELN; format: cell-based
Source text: as §1

[8] = test system: VMN; experiment: DNA microarray gene expression, VMN; format: cell-based
Source text: as §1

[9] = test system: Keratinocytes; experiment: UVA- and UVB-induced formation of immediate CPDs (iCPDs) in keratinocytes; format: cell-based; settings: 25 μg/ml
Description: Given the significance of CPDs in skin aging and damage, a study was undertaken to determine whether compounds of the present invention have the ability to directly protect the genome of skin cells from the mutagenic effect of UV light as evidenced by CPDs inhibition. The study was conducted in accordance with the method described by Mitchell et. al. [Mitchell, D L, The relative cytotoxicity of (6-4) photoproducts and cyclobutane dimers in mammalian cells. Photochem Photobiol, 48(1):51-57, 1988)] pursuant to which UVA- and UVB-induced formation of immediate CPDs (iCPDs) were determined.

[10] = test system: TIMP3; experiment: DNA microarray gene expression, TIMP3; format: cell-based
Source text: as §1

[11] = test system: NOX; settings: UVA, Fibroblasts
[12] = test system: LAMC1; experiment: PCR array gene expression, LAMC1; format: cell-based
Source text: as §1

[13] = test system: TIMP3; experiment: PCR array gene expression, TIMP3; format: cell-based
Source text: as §1

[14] = test system: human dermal fibroblasts; experiment: UVA-induced plasma membrane disruption (Mitochondrial ToxGlo Assay); format: cell-based; settings: 24 hour Pre-incubation
Description: as §2, §3

[15] = test system: COL5A1; experiment: DNA microarray gene expression, COL5A1; format: cell-based
Source text: as §1

[16] = test system: COL1A1; experiment: DNA microarray gene expression, COL1A1; format: cell-based
Source text: as §1

[17] = test system: FMOD; experiment: DNA microarray gene expression, FMOD; format: cell-based
Source text: as §1

[18] = test system: ITGA1; experiment: PCR array gene expression, ITGA1; format: cell-based
Source text: as §1

[19] = target: T1, MMP-1 enzyme (Homo sapiens, UniProt P03956); experiment: MMP-1 inhibition; format: biochemical; settings: read-out: Inhibitory concentration (IC50), MMP-1
T1 construct: purchased Anaspec
Description: Another study was conducted in which the elastin and MMP activity of Compound 1 was evaluated. The methodology for the study of MMP-1 and MMP-3 activity was as follows: • A 0.1 g sample of Compound 1 was dissolved in 1 ml DMSO, then it was diluted 100× with Tris buffer (50 mM Iris pH 7.5, 150 mM NaCl, 2 mM CaCl2, 5μ ZnO4, 0.01% Brij-35) to make a stock solution. For the analysis, different concentrations of Compound 1 were used to determine the IC50. The sample and 100 ng/ml MMP-1 enzyme (Anaspec) or MMP-3 enzyme (Anaspec) were incubated at 37° C. for 10 minutes before the addition of 2.25 μM PEPDAB008 substrate (Biozyme). The fluorescence signal was monitored at excitation of 485 nm and emission of 530 nm.

[20] = test system: COL6A3; experiment: DNA microarray gene expression, COL6A3; format: cell-based
Source text: as §1

[21] = test system: TIMP2; experiment: DNA microarray gene expression, TIMP2; format: cell-based
Source text: as §1

[22] = test system: COL5A1; experiment: PCR array gene expression, COL5A1; format: cell-based
Source text: as §1

T1 sequence (P03956 100-469, species assumed): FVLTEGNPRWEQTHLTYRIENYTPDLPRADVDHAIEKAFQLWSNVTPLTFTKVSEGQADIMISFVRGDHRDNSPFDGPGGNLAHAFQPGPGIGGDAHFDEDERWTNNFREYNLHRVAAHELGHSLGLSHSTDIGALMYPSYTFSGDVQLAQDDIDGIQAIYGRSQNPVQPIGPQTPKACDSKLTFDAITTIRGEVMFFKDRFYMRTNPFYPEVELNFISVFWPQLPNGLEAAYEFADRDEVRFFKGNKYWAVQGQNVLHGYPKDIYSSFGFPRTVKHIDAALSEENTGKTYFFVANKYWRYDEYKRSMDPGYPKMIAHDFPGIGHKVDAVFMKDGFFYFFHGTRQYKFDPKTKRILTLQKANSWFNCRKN

With `COc1cc(CC(C(C)=O)C(C)=O)ccc1O` [Compound 1, Acetyl Zingerone] the “% Collagen 3 boosting” value ([1]; 50 μg/ml) was 111%, the “% Collagen 3 boosting” value ([1]; 100 μg/ml) was 146% and the “Microarray, LAMA4 gene expression” value [2] was “+1.7”. The “Microarray, MMP3 gene expression” value [3] was −2.4, the “ATP-related chemoluminescence (% Control)” value ([4]; 6.25 ug/ml) was 94 % Control and the “Comments: % damage” value ([4]; 6.25 ug/ml) was “Only 6%”. The “ATP-related chemoluminescence (% Control)” value ([4]; 12.5 ug/ml) was 87 % Control, the “Comments: % damage” value ([4]; 12.5 ug/ml) was “Only 13%” and the “PCR array, ITGB5 gene expression” value [5] was “+1.7”. For the same compound, the “Microarray, COL11A2 gene expression” value [6] was “+5.2”, the “Microarray, ELN gene expression” value [7] was “+1.7” and the “Microarray, VMN gene expression” value [8] was “+1.7”. For the same compound, the “UVA/% Reduction in iCPDs vs. Control” value ([9]; UVA) was 73%, the “UVB/% Reduction iCPDs vs. Control” value ([9]; UVB) was 44% and the “Microarray, TIMP3 gene expression” value [10] was “+5.1”. The “reduction of NOX activity” value ([11]; 25 μg/ml) was −27%, the “reduction of NOX activity” value ([11]; 50 μg/ml) was −33% and the “PCR array, LAMC1 gene expression” value [12] was “+2.0”. For the same compound, the “PCR array, TIMP3 gene expression” value [13] was “+2.4”, the “Plasma membrane disruption-related fluorescence (% Control)” value ([14]; 6.25 ug/ml) was 125 % Control and the “Plasma membrane disruption-related fluorescence (% Control)” value ([14]; 12.5 ug/ml) was 130 % Control. For the same compound, the “Plasma membrane disruption-related fluorescence (% Control)” value ([14]; 25 ug/ml) was 117 % Control, the “Microarray, COL5A1 gene expression” value [15] was “+4.1” and the “Microarray, COL1A1 gene expression” value [16] was “+1.6”. For the same compound, the “Microarray, FMOD gene expression” value [17] was “+1.6”, the “PCR array, ITGA1 gene expression” value [18] was “+2.2” and the IC50 [19] was 4.19 mM. For the same compound, the “Microarray, COL6A3 gene expression” value [20] was “+1.8”, the “Microarray, TIMP2 gene expression” value [21] was “+1.5” and the “PCR array, COL5A1 gene expression” value [22] was “+2.7”.
